From US4537879A, “A47934 Antibiotic and process for production thereof” (Eli Lilly and Company, priority 1984, dated 1985)
Converted amounts (≈) assume the structure as drawn. Where two headings read alike, the source gives them in different places.

What was measured:
[1] = test system: S. aureus (3055); assay: In vivo activity against experimental bacterial infection; conditions: mice, two doses subcutaneously; S. aureus (3055) infection
[2] = test system: Staphylococcus epidermidis; assay: MIC against a variety of bacteria, standard agar-dilution; type: cell-based
[3] = Test 3: growth promotion in weanling pigs; type: in vivo; conditions: 28 days
Experimental: Antibiotic A47934 was tested at levels of 10 and 50 ppm. in the diet of pigs initially weighing an average of about 23 pounds, compared with […]) administered in the diet at 110 ppm. The experiment was conducted in an environmentally controlled nursery facility with wire mesh floors in the pens. There were four replicates per treatment and four pigs per replicate for the 28-day experiment. There were six replicates of four pigs per replicate in the control group, which group received the unmedicated diet. The pigs were fed ad libitum on an 18 percent protein corn-soy ration having the following composition: At the end of the trial, the average weight of the individual pig had increased to 53 pounds.

[4] = test system: Bacteroides corrodens 1874; assay: MIC against anaerobic bacteria, agar dilution; type: cell-based; conditions: strain 1874
[5] = test system: Peptostreptococcus anaerobius 1428; assay: MIC against anaerobic bacteria, agar dilution; type: cell-based; conditions: strain 1428
[6] = test system: Bacteroides melaninogenicus; assay: MIC against anaerobic bacteria, agar dilution; type: cell-based
[7] = test system: Fusobacterium necrophorum 6054A; assay: MIC against anaerobic bacteria, agar dilution; type: cell-based; conditions: strain 6054A
[8] = test system: Escherichia coli
[9] = test system: Klebsiella pneumoniae
[10] = test system: S. pyogenes C203; assay: In vivo activity against experimental bacterial infection; conditions: mice, two doses subcutaneously
[11] = test system: Eubacterium aerofaciens 1235; assay: MIC against anaerobic bacteria, agar dilution; type: cell-based; conditions: strain 1235
[12] = test system: Propionibacterium acnes 79; assay: MIC against anaerobic bacteria, agar dilution; type: cell-based; conditions: strain 79
[13] = test system: Streptococcus Group D; assay: MIC against a variety of bacteria, standard agar-dilution; type: cell-based
[14] = test system: S. pneumoniae (Park I); assay: In vivo activity against experimental bacterial infection; conditions: mice, two doses subcutaneously
[15] = test system: Clostridium difficile 2994; assay: MIC against anaerobic bacteria, agar dilution; type: cell-based; conditions: strain 2994
[16] = test system: Haemophilus influenza; assay: MIC against a variety of bacteria, standard agar-dilution; type: cell-based
[17] = test system: Streptococcus pyogenes C203; assay: as above; type: cell-based; conditions: strain C203
[18] = test system: Streptococcus pneumoniae Park 1; assay: as above; type: cell-based; conditions: strain Park 1
[19] = test system: Staphylococcus aureus; assay: as above; type: cell-based
[20] = test system: Bacteroides thetaiotaomicron 1438; assay: MIC against anaerobic bacteria, agar dilution; type: cell-based; conditions: strain 1438
[21] = test system: Clostridium perfringens 81; type: cell-based; conditions: strain 81; agar dilution
[22] = Precipitation from broth filtrate on acidification; type: physicochemical; conditions: broth filtrate acidified
Description: Antibiotic A47934 can also be removed from the broth filtrate by adjusting such filtrate to about pH 3 with acid, for complete precipitation, followed by filtration. A47934 starts to precipitate at about pH 6.5 and is complete at about pH 3. Inorganic acids such as hydrochloric, sulfuric, and phosphoric, and organic acids such as acetic acid and formic acid are suitable for acidification. The crude A47934 thus obtained can be further purified by chromatographic procedures.

[23] = test system: Salmonella typhi; assay: MIC against a variety of bacteria, standard agar-dilution; type: cell-based
[24] = test system: Peptococcus asaccharolyticus 1302; assay: MIC against anaerobic bacteria, agar dilution; type: cell-based; conditions: strain 1302
[25] = test system: Clostridium difficile strains; assay: MIC against Clostridium difficile strains, agar-dilution; type: cell-based
Description: Antibiotic A47934 is also active against a number of strains of Clostridium difficile, as determined by the agar-dilution method.

[26] = test system: Peptococcus prevoti 1281; conditions: strain 1281; agar dilution
[27] = test system: Peptostreptococcus intermedius 1264; assay: MIC against anaerobic bacteria, agar dilution; type: cell-based; conditions: strain 1264
[28] = test system: Clostridium septicum 1128; assay: MIC against anaerobic bacteria, agar dilution; type: cell-based; conditions: strain 1128
[29] = Test 2: growth promotion in chickens; type: in vivo, 8-day old Penobscot broilers; conditions: chicks, 20 g./T. of feed, 21 days
Description: Chicks, 8-day old Penobscot broilers, were used in this test. A total of 560 chicks were used divided into groups of 7 birds each. […] The broiler starter ration has the following composition: Feed and water were available to all groups ad libitum for 21 days. Two time replicates were run.

[30] = test system: Fusobacterium symbiosum 1470; assay: MIC against anaerobic bacteria, agar dilution; type: cell-based; conditions: strain 1470
[31] = test system: Bacteroides vulgatis 1211; assay: MIC against anaerobic bacteria, agar dilution; type: cell-based; conditions: strain 1211
[32] = test system: Bacteroides fragilis; assay: MIC against anaerobic bacteria, agar dilution; type: cell-based
[33] = test system: volatile fatty acids produced in the rumen; assay: Test 1: in vitro modification of the ratio of volatile fatty acids produced in the rumen
Description: The effectiveness of antibiotic A47934 in modifying the ratio of volatile fatty acids produced in the rumen has been determined using the in vitro test described in Raun, U.S. Pat. No. 3,928,571 (Dec. 23, 1975), see the EXAMPLE therein. The data in Table 9, which follows, are reported as the ratio of VFA's produced in treated flasks to VFA's produced in untreated control flasks.

[34] = Acute toxicity, intraperitoneal; type: in vivo; conditions: mice, intraperitoneally
Experimental: Antibiotic A47934, when given intraperitoneally to mice, has an acute toxicity greater than 300 mg./kg.

N[C@H]1C(=O)N[C@@H]2Cc3ccc(c(Cl)c3)Oc3cc4cc(c3O)Oc3ccc(cc3Cl)[C@@H](O)[C@@H]3NC(=O)[C@H](NC(=O)[C@@H]4NC(=O)[C@@H](NC2=O)c2cc(O)cc(c2)Oc2cc1ccc2OS(=O)(=O)O)c1cc(Cl)c(O)c(c1)-c1c(O)cc(O)cc1[C@@H](C(=O)O)NC3=O [Antibiotic A47934]
ED50 [1]: < 0.3 mg./kg. × 2 | MIC ([2]; strain EPI1): 0.25 µg/mL (≈ 0.19 µM) | MIC ([2]; strain EPI2): 2.0 µg/mL (≈ 1.52 µM) | ADF % Im-crease ([3]; 10 ppm in diet): -3.2% | ADF (average daily feed consumption) ([3]; 10 ppm in diet): 1.83 lbs. | ADG % Im-crease ([3]; 10 ppm in diet): 3.1% | ADG (average daily gain) ([3]; 10 ppm in diet): 1.00 lbs. | F/G % Improvement ([3]; 10 ppm in diet): 7.6% | F/G (ratio of feed consumption to gain) ([3]; 10 ppm in diet): 1.82 | ADF % Im-crease ([3]; 50 ppm in diet): 4.7% | ADF (average daily feed consumption) ([3]; 50 ppm in diet): 1.98 lbs. | ADG % Im-crease ([3]; 50 ppm in diet): 10.3% | ADG (average daily gain) ([3]; 50 ppm in diet): 1.07 lbs. | F/G % Improvement ([3]; 50 ppm in diet): 6.1% | F/G (ratio of feed consumption to gain) ([3]; 50 ppm in diet): 1.85 | MIC [4]: 32.0 µg/mL (≈ 24.4 µM) | MIC [5]: 0.25 µg/mL (≈ 0.19 µM) | MIC ([6]; strain 1856/28): > 128.0 µg/mL | MIC ([6]; strain 2736): 16.0 µg/mL (≈ 12.2 µM) | MIC [7]: 0.25 µg/mL (≈ 0.19 µM) | MIC ([8]; strain EC14): > 128.0 µg/mL | MIC ([8]; strain N10): > 128.0 µg/mL | MIC ([8]; strain TEM): > 128.0 µg/mL | MIC ([9]; strain KAE): > 128.0 µg/mL | MIC ([9]; strain X26): > 128.0 µg/mL | ED50 [10]: 3.38 mg./kg. × 2 | MIC [11]: 1.0 µg/mL (≈ 0.761 µM) | MIC [12]: 1.0 µg/mL (≈ 0.761 µM) | MIC ([13]; strain 9960): 0.5 µg/mL (≈ 0.381 µM) | MIC ([13]; strain X66): 0.5 µg/mL (≈ 0.381 µM) | ED50 [14]: 1.77 mg./kg. × 2 | MIC [15]: 0.5 µg/mL (≈ 0.381 µM) | MIC ([16]; strain 76): 4.0 µg/mL (≈ 3.05 µM) | MIC ([16]; strain C.L.): 2.0 µg/mL (≈ 1.52 µM) | MIC [17]: 0.25 µg/mL (≈ 0.19 µM) | MIC [18]: 0.06 µg/mL (≈ 0.0457 µM) | MIC [19]: 0.125 µg/mL (≈ 0.0952 µM) | MIC ([19]; strain S13E): 0.125 µg/mL (≈ 0.0952 µM) | MIC ([19]; strain X1.1): 0.06 µg/mL (≈ 0.0457 µM) | MIC ([19]; strain X400): 0.25 µg/mL (≈ 0.19 µM) | MIC [20]: 32.0 µg/mL (≈ 24.4 µM) | MIC [21]: 0.5 µg/mL (≈ 0.381 µM) | pH at which A47934 starts to precipitate [22]: ~6.5 pH | pH at which precipitation is complete [22]: ~3 pH | MIC ([23]; strain 1335): > 128 µg/mL | MIC ([23]; strain X514): > 128 µg/mL | MIC [24]: 0.5 µg/mL (≈ 0.381 µM) | MIC ([25]; strain 78): ≤ 0.5 µg/mL | MIC ([25]; strain 107B): ≤ 0.5 µg/mL | MIC ([25]; strain 111F): ≤ 0.5 µg/mL | MIC ([25]; strain 1153): ≤ 0.5 µg/mL | MIC ([25]; strain 2634): ≤ 1.0 µg/mL | MIC ([25]; strain 3424-5B): ≤ 0.5 µg/mL | MIC ([25]; strain 3816): ≤ 0.5 µg/mL | MIC ([25]; strain 3950D): ≤ 0.5 µg/mL | MIC ([25]; strain 6890): ≤ 0.5 µg/mL | MIC ([25]; strain 8484): ≤ 0.5 µg/mL | MIC ([25]; strain A-194): ≤ 0.5 µg/mL | MIC ([25]; strain A-195): ≤ 0.5 µg/mL | MIC ([25]; strain A-196): ≤ 0.5 µg/mL | MIC ([25]; strain A-279): ≤ 1.0 µg/mL | MIC ([25]; strain A-280): ≤ 0.5 µg/mL | MIC ([25]; strain A-281): ≤ 0.5 µg/mL | MIC ([25]; strain WAL-2112): ≤ 0.5 µg/mL | MIC ([25]; strain WAL-3657): ≤ 0.5 µg/mL | MIC ([25]; strain WAL-4268): ≤ 0.5 µg/mL | MIC [26]: 1.0 µg/mL (≈ 0.761 µM) | MIC [27]: 1.0 µg/mL (≈ 0.761 µM) | MIC [28]: 0.5 µg/mL (≈ 0.381 µM) | Feed Efficiency % Impr. ([29]; first time replicate): 4.69% | Feed Efficiency F/G ([29]; first time replicate): 1.707 | Weight Gain ([29]; first time replicate): 519 gm. | Weight Gain % Impr. ([29]; first time replicate): 7.23% | Feed Efficiency F/G ([29]; second time replicate): 1.746 | Weight Gain ([29]; second time replicate): 464 gm. | Weight Gain % Impr. ([29]; second time replicate): 0% | MIC [30]: 2.0 µg/mL (≈ 1.52 µM) | MIC [31]: 32.0 µg/mL (≈ 24.4 µM) | MIC ([32]; strain 111): 32.0 µg/mL (≈ 24.4 µM) | MIC ([32]; strain 1877): 32.0 µg/mL (≈ 24.4 µM) | MIC ([32]; strain 1936B): 32.0 µg/mL (≈ 24.4 µM) | Acetate, ratio of VFA produced in treated flasks to untreated control flasks ([33]; 1 mcg./ml.): 0.99 | Butyrate, ratio of VFA produced in treated flasks to untreated control flasks ([33]; 1 mcg./ml.): 1.01 | Propionate, ratio of VFA produced in treated flasks to untreated control flasks ([33]; 1 mcg./ml.): 1.11 | Acetate, ratio of VFA produced in treated flasks to untreated control flasks ([33]; 2 mcg./ml.): 1.09 | Butyrate, ratio of VFA produced in treated flasks to untreated control flasks ([33]; 2 mcg./ml.): 1.03 | Propionate, ratio of VFA produced in treated flasks to untreated control flasks ([33]; 2 mcg./ml.): 1.10 | Acetate, ratio of VFA produced in treated flasks to untreated control flasks ([33]; 4 mcg./ml.): 0.81 | Butyrate, ratio of VFA produced in treated flasks to untreated control flasks ([33]; 4 mcg./ml.): 1.03 | Propionate, ratio of VFA produced in treated flasks to untreated control flasks ([33]; 4 mcg./ml.): 1.32 | Acetate, ratio of VFA produced in treated flasks to untreated control flasks ([33]; 10 mcg./ml.): 0.95 | Butyrate, ratio of VFA produced in treated flasks to untreated control flasks ([33]; 10 mcg./ml.): 1.00 | Propionate, ratio of VFA produced in treated flasks to untreated control flasks ([33]; 10 mcg./ml.): 1.12 | acute toxicity [34]: greater than 300 mg./kg.

CC[C@H]1OC(=O)C[C@@H](O)[C@H](C)[C@@H](O[C@@H]2O[C@H](C)[C@@H](O[C@H]3C[C@@](C)(O)[C@@H](O)[C@H](C)O3)[C@H](N(C)C)[C@H]2O)[C@@H](CC=O)C[C@@H](C)C(=O)/C=C/C(C)=C/[C@@H]1CO[C@@H]1O[C@H](C)[C@@H](O)[C@@H](OC)[C@H]1OC [Tylan, tylosin, reference compound]
ADF % Im-crease ([3]; 110 ppm in diet): 2.6% | ADF (average daily feed consumption) ([3]; 110 ppm in diet): 1.94 lbs. | ADG % Im-crease ([3]; 110 ppm in diet): 4.1% | ADG (average daily gain) ([3]; 110 ppm in diet): 1.01 lbs. | F/G % Improvement ([3]; 110 ppm in diet): 2.5% | F/G (ratio of feed consumption to gain) ([3]; 110 ppm in diet): 1.92
